In US20150181901A1, “Compositions and Methods for Tissue Storage” (priority 2012, published 2015):
Several values for one entry are separate records, joined by “and”; a condition that tells them apart may be missing. Identical values can stand only once.

Tests used:
[1] = Freeze/thaw cycling of meat soaked in trehalose solution: fluid loss and weight loss (chicken)
Protocol: (§1) Variables included the high and low temperatures of the temperature range, and frequency of the freeze/thaw cycles. In one embodiment, treated meat samples were placed in a minus 40 degrees C. freezer for 24 hours, followed by room temperature for 6 hours, which was followed by 18 hours at 0.5 to 5.0 degrees C., in a refrigerator. This cycle was immediately followed by minus 40 degrees C. freezer for 24 h, room temperature for 6 h, which was followed by 18 hours at 0.5 to 5.0 degrees C., in a refrigerator. Chicken breast fillet, pork chops, and London broil beef, were obtained from local suppliers and were cut in water. Each type of meat was cut into four even-sized pieces, and the weight was recorded. Each piece was immersed separately in either water or in test solution, e.g., trehalose or saline, for 12 h. The meat was removed from the water, and excess water was blotted off. Place each sample in a Ziploc® plastic bag. Weights were recorded. The weighed samples were set in a container, and placed in a freezer, where each sample was at the same level (same level relative to the floor of the freezer). The freezer (minus 40 degrees C.) was Puffer Hubbard Model #4017A-U-A, Harris Manufacturing Co., North Billerica, Mass. […] Then, the following steps were used: Repeat Steps 1 to 4 until a total of 14 days have passed. Step 1. After 24 h in the freezer, remove the container bearing all of the samples. Take photographs of the samples and record the date. Thawing occurs when the meat is taken from the freezer and left in the refrigerator. Although the meat is completely thawed prior to 24 hours of incubation in the refrigerator, the time of 24 hours was used to standardize the procedure. Step 2. Place all samples (still in the same container) in refrigerator. Step 3. After in the refrigerator 24 h, then remove the container with all the samples, and take photos and record the date. Step 4. Place samples, still in the same container, in the freezer. As mentioned above, repeat Steps 1 to 4 until a total of 14 days have passed. Step 5. After the last sample photos were taken, samples were removed from its bag, and the weight was recorded after removing excess ice from the sample. The ice is left in the bag. Replace sample in Ziploc® bag. Place all bags at room temperature until all the ice has melted, and pour fluid into clear plastic tube with graduated side (fluid from each bag), and record the volumes of the fluid. Alternatively, volume can be determined with a pipette. Step 6. Place all weighed meat samples into the same Ziploc® bag, and place back in the refrigerator to thaw. After thawing, remove the meat samples from each bag, and pour excess fluid into graduated cylinder tubes (the tubes that held the ice that had melted), and record additional volumes. Between the first week (three freeze/thaw cycles) and the second week (three more freeze/thaw cycles), there was no re-exposure to trehalose. All samples were removed from the refrigerator. Liquid was in most of the sample bags. Fluid was removed by a pipette and the volume was recorded, and the meat sample was weighed. Samples of about 1-2 grams were taken using a no. 10 scalpel, and placed in formalin. FIG. 6 discloses the volume of fluid lost during the second week of freeze/thaw cycles.

[2] = Freeze/thaw cycling of meat soaked in trehalose solution: fluid loss and weight loss (pork); settings: for weight loss: post 3 freeze/thaw cycles, first week (FIG. 4), 0% trehalose about 10%
Protocol: as §1

[3] = Freeze/thaw cycling of meat soaked in trehalose solution: fluid loss and weight loss (beef); settings: for weight loss: post 3 freeze/thaw cycles, first week (FIG. 4), 0% trehalose about 18%
Protocol: as §1

[4] = 0%, 5%, 10%, 15% trehalose, three freeze/thaw cycles, first week (FIG. 1)
[5] = cumulative, first and second week (FIG. 12)
[6] = second week of freeze/thaw cycles (FIG. 8)
[7] = second week of freeze/thaw cycles, no re-exposure to trehalose

OC[C@H]1O[C@H](O[C@H]2O[C@H](CO)[C@@H](O)[C@H](O)[C@H]2O)[C@H](O)[C@@H](O)[C@@H]1O [trehalose, trehalose dihydride]
loss of water/10 grams of meat ([1]; chicken, 15% trehalose, first week (FIG. 5), 0% trehalose about 1.8): 0.47 mL/10 grams of meat | trehalose concentration with maximal effect on cumulative weight loss ([1]; chicken, cumulative, first and second week (FIG. 12)): 15% | effect of trehalose on weight loss ([1]; chicken, first week (FIG. 17)): reduction was about the same (plateau in trehalose effect) for 5%, 10%, and 15% trehalose | effect of trehalose on weight loss ([1]; chicken, second week (FIG. 17)): weight reduction by trehalose was only found at 10% and 15% trehalose | trehalose concentration with lowest weight loss ([1]; chicken, second week of freeze/thaw cycles (FIG. 8)): 15% | trehalose concentration with maximal effect on reducing fluid loss ([1]; chicken, second week of freeze/thaw cycles, no re-exposure to trehalose): 15% | weight loss ([1]; chicken, soaked in 5%, 10%, or 15% trehalose, post-soak weight vs post 3 freeze/thaw cycles, first week (FIG. 4), 0% trehalose 18%): 10-11% | effect of trehalose concentration on volume of fluid lost ([1]; poultry, 0%, 5%, 10%, 15% trehalose, three freeze/thaw cycles, first week (FIG. 1)): Increasing the concentration of trehalose resulted in decreasing volumes of fluid lost | effect of trehalose concentration on volume of fluid lost [2, 4]: Increasing the concentration of trehalose resulted in decreasing volumes of fluid lost | loss of water/10 grams of meat ([2]; 15% trehalose, first week (FIG. 5), 0% trehalose 1.0): 0.4 mL/10 grams of meat | trehalose concentration with maximal effect on cumulative weight loss [2, 5]: 15% | effect of trehalose on weight loss ([2]; first week (FIG. 18)): reduction was progressively effective for 5%, 10%, and 15% trehalose | effect of trehalose on weight loss ([2]; second week (FIG. 18)): weight reduction seemed to plateau when trehalose was in the range of 5-15% trehalose | trehalose concentration with lowest weight loss [2, 6]: 5% (or 15%) | trehalose concentration with maximal effect on reducing fluid loss [2, 7]: 15% | weight loss ([2]; soaked in 5% trehalose): about 9% | weight loss ([2]; soaked in 10% trehalose): about 8% | weight loss ([2]; soaked in 15% trehalose): about 5% | effect of trehalose concentration on volume of fluid lost [3, 4]: Increasing the concentration of trehalose resulted in decreasing volumes of fluid lost | loss of water/10 grams of meat ([3]; 10% trehalose, first week (FIG. 5), 0% trehalose about 1.8): about 0.9 mL/10 grams of meat | fluid loss for the first week relative to fluid loss for the second week ([3]; at each respective trehalose value (FIG. 16)): 2-3 times | trehalose concentration with maximal reduction in cumulative fluid loss ([3]; cumulative, first and second week): 10% and 10-15% | trehalose concentration with maximal effect on cumulative weight loss [3, 5]: 10% and 10-15% | effect of trehalose on weight loss ([3]; first week (FIG. 19)): reduction was progressively effective for 5%, 10%-15% trehalose | effect of trehalose on weight loss ([3]; second week (FIG. 19)): weight reduction seemed to plateau when trehalose was in the range of 5-15% trehalose | trehalose concentration with lowest weight loss [3, 6]: 15% | trehalose concentration with maximal effect on reducing fluid loss [3, 7]: 10% | weight loss ([3]; soaked in 5% trehalose): ~15% | weight loss ([3]; soaked in 10% trehalose): about 8% | weight loss ([3]; soaked in 15% trehalose): about 10%
